Key:
[1] = test system: Hormone-sensitive lipase (HSL); experiment: hormone-sensitive lipase assay (radiolabeled triolein emulsion); assay type: biochemical; conditions: 50 μM
Procedure: Hormone-sensitive lipase (HSL) and lipoprotein lipase (LPL) were measured using a radiolabeled triolein droplet emulsion as described in “Vertesy et al., (2002) Journal Antibiotics 55:480-494”. Pancreatic lipase (PL) was determined by incubation of 0.25 mmol tributyrin in 2 ml of 5 mM Tris/HCl (pH 6.5), 6 mM sodium taurodeoxycholate, 150 mM NaCl, 1 mM CaCl2 with porcine PL and colipase in the same buffer using a recording pH stat (stirring at 1000 rpm at 25° C.) with the pH adjusted to 6.5. PC-PLC was assayed by incubation of 0.2 ml of 10 mM dipalmitoyllecithin, 0.1 ml of 10 mM SDC and 0.1 ml of 0.03 M CaCl2 with bacterial PC-PLC (in 50 mM Tris/HCl, pH 7.5, 0.1% BSA) for 10 min at 37° C. The reaction was terminated by addition of 0.1 ml of 50% TCA and subsequently of 2.5 ml of […]. After centrifugation (1500×g, 15 min), 0.2-ml portions of the upper methanol/water phase (˜1.33 ml) were removed, supplemented with 0.5 ml of 60% HClO4, then heated at 170° C. for 1 h and finally analyzed for inorganic phosphate. Mammalian PI-PLC was measured by incubation of 0.1 ml of 10 mM PI, 0.1 ml of 0.8% sodium deoxycholate, 0.1% BSA, 0.2 ml of 100 mM sodium borate (pH 7.5) and rat liver PI-PLC for 20 min at 37° C. The reaction was terminated and further processed as described for the PC-PLC. […] Radioactive phosphatidic acid was detected by phosphorimaging. […]

isolated rat adipocytes = experiment: glucose transport assay (2-deoxy-D-[3H]glucose); assay type: cell-based; conditions: 50 μM
Procedure: Glucose transport was determined as described in “Müller, G. et al., (1994) J. Cell Biol. 126: 1267-1276” by incubation of 10,000-20,000 washed adipocytes with 2-deoxy-D[2,6-^3H]glucose at 50 μM final conc. (0.33 μCi/ml) in 50-μl portions for 20 min at 37° C. in the absence or presence of 20 μM cytochalasin B.
Table 3: Isolated rat adipocytes were incubated in the presence of methyl-β-cyclodextrin (m-β-CD, 10 mM, 50 min), CBDP (300 μM, electroporation, followed by washing and subsequent incubation for 30 min), PIG41 (10 μM, 15 min), sodium orthovanadate (1 mM, 15 min), trypsin (10 μg/ml, 15 min followed by treatment with 0.5 M NaCl and subsequent washing) and N-ethylmaleimide (1 mM, 5 min followed by addition of DTT). After addition of GPI-2350 (50 μM final conc.) to one half of the adipocyte suspension and further incubation (60 min, 37° C.), portions of the cells were assayed for 5′-Nuc activity in the isolated IcDIGs. The increase in 5′-Nuc during the basal incubation was set at 100 arb. units. Other portions of the cells (after 15 min incubation) were assayed for glucose transport which was set at 100 arb. units for the basal incubation. Means+SD of at least 3 independent cell incubations with activity measurements in triplicate each are given.
FIG. 8: Effect of GPI-2350 on the glimepiride/insulin-induced metabolic activity. Isolated rat adipocytes were treated (5 min, 37° C.) without or with GPI-2350 (Panel A, 50 μM; Panel B, increasing conc.; Panel C, 5 μM, 50 μM) and then incubated (15 min, 37° C.) in the absence or presence of insulin (Ins, 10 nM) or glimepiride (Gli, 20 μM or increasing conc.) as indicated. The adipocytes were then assayed for glucose transport and isoproterenol-induced lipolysis. The activity is given relative to the absence of GPI-2350 in the control reaction (Panels A, basal) or in the insulin- and glimepiride-stimulated state (Panels B and C, set at 100). Means+SD of at least 5 independent cell incubations with activity measurements in triplicate each are given.

`CCCCCCCCCCCCP1(=O)O[C@@H]2[C@H](O)[C@@H](O)[C@H](O)[C@@H](O)[C@@H]2O1` (some centres unmarked) [GPI-2350, myo-inositol-1,2-cyclo-dodecylphosphonic acid] was tested, and the “effect on HSL” value [1] was “not significantly affected” and the “effect on stimulation of glucose transport in response to glimepiride” value (isolated rat adipocytes) was “almost complete blockade”.
